# Results reported in patent US20060247129A1, “Surfactant compounds and agrochemical compositions” (Imperial Chemical Industries PLC, priority 2003, published 2006).
# Where a name gives a salt, the structure may show the parent alone.
# Experiments:
# Test in all cases: glasshouse herbicide spray test, % weed control, adjuvant with glyphosate potassium salt
# Assay type in all cases: in vivo
# Details in all cases: adjuvant 0 % v/v, 19 days after treatment
# [1] = tested on: Abutilon Theophrasti
# Method: (§1) The compound of Synthesis Example SE1 was tested as an adjuvant with glyphosate potassium salt, mixing the glyphosate and adjuvant in a tank mix using concentrations of glyphosate from 0.125 to 2 g.l-1 and of adjuvant from 0.003125 to 0.2% v/v. The tank mixes were sprayed as a herbicide on a variety of test species at an application rate of 200 l.ha^−1 to give application rates of glyphosate of from 25 to 400 g (active ingredient).ha^−1. The plants were grown in a warm glasshouse and assessed 19 days after treatment for % control—the mean of three replicates for visually assessed % weed control, relative to unsprayed plants of each species in the same test.
# (§2) Example AE1 was repeated but using the compound made in Synthesis Example SE4 as the adjuvant.
# [2] = tested on: Echinochloa crus-galli
# Method: as §1, §2
# [3] = tested on: Portulaca oleracea
# Method: as §1, §2
# [4] = tested on: Sida Spinosa
# Method: as §1, §2
# [5] = tested on: Solanum nigra
# Method: as §1, §2
# [6] = tested on: Sorghum halepense
# Method: as §1, §2
smiles,measurement,setting,value
"O=C(O)CNCP(=O)(O)O [Glyphosate, glyphosate potassium salt, reference compound]",% control ABUTH,[1]; glyphosate 200 g ai/ha,53%
same,% control ABUTH,[1]; glyphosate 400 g ai/ha,73%
same,% control ECHCG,[2]; glyphosate 25 g ai/ha,21%
same,% control ECHCG,[2]; glyphosate 50 g ai/ha,47%
same,% control ECHCG,[2]; glyphosate 100 g ai/ha,67%
same,% control ECHCG,[2]; glyphosate 200 g ai/ha,82%
same,% control POROC,[3]; glyphosate 50 g ai/ha,3%
same,% control POROC,[3]; glyphosate 100 g ai/ha,10%
same,% control POROC,[3]; glyphosate 200 g ai/ha,22%
same,% control POROC,[3]; glyphosate 400 g ai/ha,38%
same,% control SIDSP,[4]; glyphosate 50 g ai/ha,30%
same,% control SIDSP,[4]; glyphosate 100 g ai/ha,35%
same,% control SIDSP,[4]; glyphosate 200 g ai/ha,58%
same,% control SIDSP,[4]; glyphosate 400 g ai/ha,75%
same,% control SOLNI,[5]; glyphosate 50 g ai/ha,37%
same,% control SOLNI,[5]; glyphosate 100 g ai/ha,65%
same,% control SOLNI,[5]; glyphosate 200 g ai/ha,77%
same,% control SOLNI,[5]; glyphosate 400 g ai/ha,78%
same,% control SORHA,[6]; glyphosate 25 g ai/ha,8%
same,% control SORHA,[6]; glyphosate 50 g ai/ha,47%
same,% control SORHA,[6]; glyphosate 100 g ai/ha,79%
same,% control SORHA,[6]; glyphosate 200 g ai/ha,82%
